Experimental findings from US12221406B2, “Compounds as NLRP3 inflammasome inhibitors and compositions and uses thereof” (VIRGINIA COMMONWEALTH UNIVERSITY, priority 2019, dated 2025) are described below.

Each structure is given as a SMILES string.

The assay has as its target NLRP3 inflammasome (Mus musculus, UniProt Q8R4B8). Description: IL-1β release from J774A.1 cells upon LPS/ATP stimulation (ELISA). For orientation: ELISA stands for enzyme-linked immunosorbent assay.

NLRP3 inflammasome, sequence (Q8R4B8 whole entry): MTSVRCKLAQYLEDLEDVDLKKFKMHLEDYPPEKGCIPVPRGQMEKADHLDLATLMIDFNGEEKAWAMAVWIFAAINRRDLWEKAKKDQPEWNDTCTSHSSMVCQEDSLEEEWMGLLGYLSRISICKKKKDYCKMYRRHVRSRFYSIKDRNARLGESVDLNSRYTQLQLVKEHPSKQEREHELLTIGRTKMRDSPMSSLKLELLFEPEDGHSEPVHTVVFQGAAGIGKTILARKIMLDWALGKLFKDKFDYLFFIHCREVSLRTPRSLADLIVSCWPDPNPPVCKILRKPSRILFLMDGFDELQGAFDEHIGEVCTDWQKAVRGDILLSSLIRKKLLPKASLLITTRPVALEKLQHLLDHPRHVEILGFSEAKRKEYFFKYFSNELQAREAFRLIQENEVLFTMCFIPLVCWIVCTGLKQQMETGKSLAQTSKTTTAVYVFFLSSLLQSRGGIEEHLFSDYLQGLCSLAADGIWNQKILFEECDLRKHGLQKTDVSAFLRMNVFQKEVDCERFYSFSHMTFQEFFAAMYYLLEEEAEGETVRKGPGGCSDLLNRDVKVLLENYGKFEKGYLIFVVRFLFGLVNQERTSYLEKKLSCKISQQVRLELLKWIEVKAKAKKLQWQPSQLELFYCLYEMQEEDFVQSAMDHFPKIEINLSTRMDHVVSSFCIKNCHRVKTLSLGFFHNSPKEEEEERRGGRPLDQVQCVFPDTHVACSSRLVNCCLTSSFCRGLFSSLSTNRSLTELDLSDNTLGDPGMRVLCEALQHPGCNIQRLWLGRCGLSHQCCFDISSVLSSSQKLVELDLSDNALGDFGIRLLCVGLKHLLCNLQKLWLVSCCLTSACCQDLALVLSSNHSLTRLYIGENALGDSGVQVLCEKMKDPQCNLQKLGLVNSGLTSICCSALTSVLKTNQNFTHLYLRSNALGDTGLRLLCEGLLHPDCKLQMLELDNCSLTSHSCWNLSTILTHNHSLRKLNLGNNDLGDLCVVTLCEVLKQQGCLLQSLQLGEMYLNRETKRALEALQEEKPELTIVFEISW
Description: Next, test compounds were added for 30 min. ATP (5 mM) was added at the same time when compounds were added to induce NLRP3 inflammasome activation. After 30 min, the supernatants were collected and the level of IL-1β was measured with a mouse IL-1β ELISA kit following the manufacturer's instructions. Primary peritoneal macrophages were similarly treated as described with J774A.1 cell line followed by ELISA analysis for IL-β production.

A word on the IC50: it is the concentration at which inhibition is half-maximal. `C=CCN(CCc1ccc(S(=O)(=O)NC)cc1)Cc1cc(Cl)ccc1OC` [SZ-N3I-14]: the IC50 is 1000 to 10000 nM. As for `CCC(=O)N(CCc1ccc(S(=O)(=O)NC)cc1)Cc1cc(Cl)ccc1OC` [SZ-N3I-18], the 50% inhibitory concentration (IC50) was in the range of 1000 to 10000 nM. `C#CCNS(=O)(=O)c1ccc(CCN(Cc2cc(Cl)ccc2C(F)(F)F)C(=O)Cc2ccsc2)cc1` [SZ-N3I-89]: the IC50 is less than 1000 nM. Take `CCCCN(CCCC)S(=O)(=O)c1ccc(CCN(Cc2cc(Cl)ccc2OCCC)C(=O)Cc2ccccc2)cc1` [SZ-N3I-31]: the IC50 is greater than 30000 nM. `C#CCNS(=O)(=O)c1ccc(CCN(Cc2cc(Cl)ccc2OCCC)C(=O)C(N)C(C)C)cc1` (stereo not drawn) [SZ-N3I-70] yielded an IC50 of 1000 to 10000 nM. For `C#CCNS(=O)(=O)c1ccc(CCN(CCCCC)Cc2cc(Cl)ccc2OCCC)cc1` [SZ-N3I-67], the IC50 was 1000 to 10000 nM. For the compound `O=C(NCCc1ccc(S(=O)(=O)N2CCCC2)cc1)c1cc(Cl)ccc1C(O)c1ccccc1` (stereo not drawn) [SZ-N3I-66], the IC50 lay in the range of 1000 to 10000 nM.

Consider `C#CCNS(=O)(=O)c1ccc(CCN(Cc2cc(Cl)ccc2OCCN2CCOCC2)C(=O)Cc2ccsc2)cc1` [SZ-N3I-73], for which the IC50 was in the range of 1000 to 10000 nM. The compound `C#CCNS(=O)(=O)c1ccc(CCN(Cc2cc(Cl)ccc2OCCC)C(C)C)cc1` [SZ-N3I-68] registered a half-maximal inhibitory concentration (IC50) of 1000 to 10000 nM.

The compound `C#CCNS(=O)(=O)c1ccc(CCN(Cc2cc(Cl)ccc2[N+](=O)[O-])C(=O)Cc2ccsc2)cc1` [SZ-N3I-83] gave an IC50 of less than 1000 nM. `CCCOc1ccc(Cl)cc1CN(CCc1ccc(C(=O)OC)cc1)C(=O)Cc1ccccc1` [SZ-N3I-35] yielded an IC50 of less than 1000 nM. With `C#CCNS(=O)(=O)c1ccc(CCN(Cc2cc(Cl)ccc2[N+](=O)[O-])C(=O)[C@@H](N)Cc2cccs2)cc1` [SZ-N3I-87] the figure was less than 1000 nM; with `CCCCN(CCCC)S(=O)(=O)c1ccc(CCN(Cc2cc(Cl)ccc2OC)C(=O)Cc2ccccc2)cc1` [SZ-N3I-30], 1000 to 10000 nM.

The compound `COc1ccc(CNS(=O)(=O)c2ccc(CCN(Cc3cc(Cl)ccc3OC)C(=O)Cc3ccccc3)cc2)cc1` [SZ-N3I-22] yielded an IC50 of less than 1000 nM. To `C#CCNS(=O)(=O)c1ccc(CCN(Cc2cc(Cl)ccc2O)C(=O)Cc2ccsc2)cc1` [SZ-N3I-81] belongs less than 1000 nM; to `C=CC(=O)N(CCc1ccc(S(=O)(=O)NCc2ccc(OC)cc2)cc1)Cc1cc(Cl)ccc1OC` [SZ-N3I-26], less than 1000 nM; to `C#CCNS(=O)(=O)c1ccc(CCN(Cc2cc(Cl)ccc2OCCC)C(=O)[C@@H](N)c2ccsc2)cc1` [SZ-N3I-85], less than 1000 nM. `CCCOc1ccc(Cl)cc1CN(CCc1ccc(S(=O)(=O)N2CCOCC2)cc1)C(=O)Cc1ccsc1` [SZ-N3I-80]: the IC50 was less than 1000 nM. `C#CCNS(=O)(=O)c1ccc(CCN(Cc2cc(Cl)ccc2OCCC)C(=O)[C@@H](N)Cc2ccsc2)cc1` [SZ-N3I-79] registered a half-maximal inhibitory concentration (IC50) of less than 1000 nM.

Take `C#CCCC1(CCOc2ccc(Cl)cc2CN(CCc2ccc(S(=O)(=O)NCC#C)cc2)C(=O)Cc2ccsc2)N=N1` [SZ-N3I-82]: the IC50 is less than 1000 nM. To `CCCOc1ccc(Cl)cc1CN(CCc1ccc(S(=O)(=O)N2CCNCC2)cc1)C(=O)Cc1ccsc1` [SZ-N3I-69] belongs 1000 to 10000 nM; to `CCCCCC(=O)N(CCc1ccc(S(=O)(=O)NC)cc1)Cc1cc(Cl)ccc1OC` [SZ-N3I-16], 1000 to 10000 nM; to `CCCOc1ccc(Cl)cc1CN(CCc1ccc(S(=O)(=O)NCc2ccc(OC)cc2)cc1)C(=O)Cc1ccccc1` [SZ-N3I-24], less than 1000 nM. To `C#CCNS(=O)(=O)c1ccc(CCN(Cc2cc(Cl)ccc2OCCC)C(=O)[C@H](N)Cc2ccccc2)cc1` [SZ-N3I-77] belongs 1000 to 10000 nM; to `C=CCN(CCc1ccc(S(=O)(=O)NC)cc1)C(=O)c1cc(Cl)ccc1C(=O)c1ccccc1` [SZ-N3I-32], 1000 to 10000 nM.

In turn, `C#CCNS(=O)(=O)c1ccc(CCN(Cc2cc(Cl)ccc2OCCC)C(=O)[C@H]2CCCN2)cc1` [SZ-N3I-72] yielded an IC50 of 1000 to 10000 nM. For the compound `C#CCNC(=O)c1ccc(CCN(Cc2cc(Cl)ccc2OCCC)C(=O)Cc2ccccc2)cc1` [SZ-N3I-37], the IC50 was less than 1000 nM.
